Experimental data taken from patent US11453697B1, “Cyclic di-nucleotide compounds as sting agonists” (Merck Sharp & Dohme Corp., priority 2015, dated 2022).
Read-outs that look alike come from different tables or passages of the source.

Test system: IFN-β secretion in THP1 cells
Assay: IFN-β secretion in THP1 cell culture (5 h)
Format: cell-based, human
Description: The ability of compounds to stimulate the secretion of interferon-beta from THP1 cells was measured using a human IFN-β AlphaLISA kit (Perkin Elmer, Cat. No. AL265F). The basic protocol is as follows:
The cell viability and count was ascertained using a Beckman Coulter V-Cell XR cell counter. The cells suspension was centrifuged at 200×g for 5 min at RT. […] Subsequent liquid transfers were performed using either a Matrix electronic multichannel pipette or an Agilent Bravo Automated Liquid Handling Platform.
The assay was started by dispensing 40 μL of the previously prepared cell suspension into the wells of the plate containing compounds. After 5 h incubation at 37° C., 5% CO2 in a humidified atmosphere, the plate of cells and compounds was centrifuged at 200×g for 5 min at RT. […] To these supernatant-containing wells was added 10 μL of 5× Anti-Analyte Acceptor beads (50 μg/mL of AlphaLISA HiBlock Buffer) and incubated for 30 min at RT while shaking on an orbital plate shaker. To each well was added 10 μL of 5× Biotinylated Antibody Anti-analyte (5 nM in AlphaLISA HiBlock Buffer) and incubated on an orbital plate shaker for 60 min at RT or overnight at 4° C. To each well was added 25 μL of 2× SA-Donor beads (80 μg/mL in AlphaLISA HiBlock Buffer) and incubated for 30-45 min at RT in the dark while shaking on an orbital plate shaker. The plate was then read on a Perkin Elmer Envision (λex=680 nm, λem=[…]). The percent effect of the AlphaLISA signal at each compound concentration was calculated based on 30 uM cGAMP positive controls and 0.3% DMSO negative controls. The plot of percent effect versus the log of compound concentration was fit with a 4-parameter concentration response equation to calculate EC50 values.
Compounds of the disclosure were evaluated for IFN-β secretion in THP1 cell culture as described above.

[1] = IFN-β secretion in THP1 cell culture, 5 h, compound at 30 μM, percent activation relative to 2′3′-cGAMP

SMILES | % Effect at 30 μM relative to 2′3′-cGAMP [1] [%] | % Effect at 30 μM relative to 2′3′-cGAMP [%]
Nc1nc2c(ncn2[C@@H]2O[C@@H]3COP(=O)(S)OC4C5OC[C@]4(COP(=O)(S)OC2C3O)O[C@H]5n2cnc3c(N)ncnc32)c(=O)[nH]1 (single isomer, unassigned) [Example 95] | 118 | 
Nc1nc2c(ncn2[C@@H]2O[C@@H]3COP(=O)(O)O[C@H]4C[C@H](n5cnc6c(N)ncnc65)O[C@@H]4COP(=O)(O)O[C@@H]2C3)c(=O)[nH]1 [Example 27, 2-amino-9-[(5S,7R,8R,12aR,14R,15aS)-14-(6-amino-9H-purin-9-yl)-2,10-dihydroxy-2,10-dioxidooctahydro-12H-5,8-methanofuro[3,2-l][1,3,6,9,11,2,10]pentaoxadiphosphacyclotetradecin-7-yl]-1,9-dihydro-6H-purin-6-one] |  | 164
Nc1nc2c(ncn2[C@@H]2O[C@@H]3COP(=O)(S)O[C@H]4[C@@H](O)[C@H](n5ccc6c(N)ncnc65)O[C@@H]4COP(=O)(S)O[C@@H]2C3)c(=O)[nH]1 (stereo partly drawn) [Example 78, 2-amino-9-[(5S,7R,8R,12aR,14R,15R,15aS)-14-(4-amino-7H-pyrrolo[2,3-d]pyrimidin-7-yl)-15-hydroxy-2,10-dioxido-2,10-disulfanyloctahydro-12H-5,8-methanofuro[3,2-l][1,3,6,9,11,2,10]pentaoxadiphosphacyclotetradecin-7-yl]-1,9-dihydro-6H-purin-6-one] | 162 | 
Nc1nc2c(ncn2[C@@H]2O[C@@H]3COP(=O)(O)O[C@H]4[C@@H](O)[C@H](n5cnc6c(N)ncnc65)O[C@@H]4COP(=O)(O)O[C@@H]2[C@H]3F)c(=O)[nH]1 [Example 52, 2-amino-9-[(5R,7R,8S,12aR,14R,15R,15aS,16S)-14-(6-amino-9H-purin-9-yl)-16-fluoro-2,10,15-trihydroxy-2,10-dioxidooctahydro-12H-5,8-methanofuro[3,2-l][1,3,6,9,11,2,10]pentaoxadiphosphacyclotetradecin-7-yl]-1,9-dihydro-6H-purin-6-one] |  | 143
Nc1nc2c(ncn2[C@@H]2O[C@@H]3COP(O)(=S)O[C@H]4[C@@H](F)[C@H](n5cnc6c(N)ncnc65)O[C@@H]4COP(O)(=S)O[C@@H]2[C@@H]3F)c(=O)[nH]1 (stereo partly drawn) [Example 260, 2-amino-9-[(5R,7R,8S,12aR,14R,15R,15aR,16R)-14-(6-amino-9H-purin-9-yl)-15,16-difluoro-2,10-dihydroxy-2,10-disulfidooctahydro-12H-5,8-methanofuro[3,2-l][1,3,6,9,11,2,10]pentaoxadiphosphacyclotetradecin-7-yl]-1,9-dihydro-6H-purin-6-one] | 113 | 
Nc1nc2c(ncn2[C@@H]2O[C@@H]3COP(=O)(S)OC4[C@@H](COP(=O)(S)OC2C3O)O[C@@H](n2cnc3c(N)ncnc32)[C@H]4F)c(=O)[nH]1 (single isomer, unassigned) [Example 91] | 106 | 
Nc1nc2c(ncn2[C@@H]2O[C@@H]3COP(=O)(S)OC4C(O)[C@H](n5cnc6c(N)ncnc65)O[C@@H]4COP(=O)(S)OC2C3)c(=O)[nH]1 (single isomer, unassigned) [Example 87] | 99 | 
Nc1nc2c(ncn2[C@@H]2O[C@@H]3CO[P@@](=O)(S)OC4[C@@H](CO[P@@](=O)(S)O[C@H]2C3O)O[C@@H](n2cnc3c(N)ncnc32)[C@H]4F)c(=O)[nH]1 (single isomer, unassigned) [Example 89] | 119 | 
Nc1nc2c(ncn2[C@@H]2O[C@@H]3COP(=O)(O)O[C@H]4[C@H](F)[C@H](n5cnc6c(N)ncnc65)O[C@@H]4COP(O)(=S)O[C@@H]2[C@@H]3F)c(=O)[nH]1 (single isomer, unassigned) [Example 273] | 85 | 
Nc1nc2c(nnn2[C@@H]2O[C@@H]3COP(=O)(S)O[C@H]4[C@H](F)[C@H](n5cnc6c(=O)[nH]cnc65)O[C@@H]4COP(=O)(S)O[C@@H]2[C@@H]3F)c(=O)[nH]1 (single isomer, unassigned) [Example 342] | 23 | 
Nc1nc2c(ncn2[C@@H]2O[C@@H]3COP(=O)(O)OC4C(O)[C@H](n5cnc6c(N)ncnc65)O[C@@H]4COP(=O)(O)OC2C3F)c(=O)[nH]1 (stereo in doubt) [Example 5, (5R,7R,8S,12aR,14R,15R,15aS,16R)-7-(2-amino-6-oxo-1,6-dihydro-9H-purin-9-yl)-14-(6-amino-9H-purin-9-yl)-16-fluoro-15-hydroxyoctahydro-12H-5,8-methanofuro[3,2-l] [1,3,6,9,11,2,10]pentaoxadiphosphacyclotetradecine-2,10-diolate 2,10-dioxide] |  | 152
Nc1nc2c(ncn2[C@@H]2O[C@@H]3COP(=O)(O)OC4C[C@H](n5cnc6c(N)ncnc65)O[C@@H]4COP(=O)(O)OC2C3F)c(=O)[nH]1 (stereo in doubt) [Example 22, 2-amino-9-[(5R,7R,8S,12aR,14R,15aS,16R)-14-(6-amino-9H-purin-9-yl)-16-fluoro-2,10-dihydroxy-2,10-dioxidooctahydro-12H-5,8-methanofuro[3,2-l][1,3,6,9,11,2,10]pentaoxadiphosphacyclotetradecin-7-yl]-1,9-dihydro-6H-purin-6-one] |  | 109
Nc1nc2c(ncn2[C@@H]2O[C@@H]3COP(=O)(S)O[C@H]4[C@@H](O)[C@H](n5ccc6c(N)ncnc65)O[C@@H]4COP(=O)(S)O[C@@H]2C3)c(=O)[nH]1 (stereo partly drawn) [Example 79, 2-amino-9-[(5S,7R,8R,12aR,14R,15R,15aS)-14-(4-amino-7H-pyrrolo[2,3-d]pyrimidin-7-yl)-15-hydroxy-2,10-dioxido-2,10-disulfanyloctahydro-12H-5,8-methanofuro[3,2-l][1,3,6,9,11,2,10]pentaoxadiphosphacyclotetradecin-7-yl]-1,9-dihydro-6H-purin-6-one] | 145 | 
Nc1nc2c(ncn2[C@@H]2O[C@@H]3COP(=O)(O)O[C@H]4[C@@H](O)[C@H](n5cnc6c(N)ncnc65)O[C@@H]4COP(=O)(O)O[C@@H]2[C@H]3O)c(=O)[nH]1 [Example 39, 2-amino-9-[(5R,7R,8R,12aR,14R,15R,15aS,16S)-14-(6-amino-9H-purin-9-yl)-2,10,15,16-tetrahydroxy-2,10-dioxidooctahydro-12H-5,8-methanofuro[3,2-l][1,3,6,9,11,2,10]pentaoxadiphosphacyclotetradecin-7-yl]-1,9-dihydro-6H-purin-6-one] |  | 74
Nc1nc2c(ncn2[C@@H]2O[C@@H]3COP(=O)(S)OC4[C@@H](COP(=O)(S)O[C@H]2C3O)O[C@@H](n2cnc3c(N)ncnc32)[C@H]4F)c(=O)[nH]1 (single isomer, unassigned) [Example 83] | 133 | 
Nc1nc2c(ncn2[C@@H]2O[C@@H]3COP(=O)(O)OC4[C@@H](COP(=O)(O)O[C@H]2C3F)O[C@@H](n2cnc3c(N)ncnc32)[C@H]4F)c(=O)[nH]1 (stereo partly drawn) [Example 26, 2-amino-9-[(2S,5R,7R,8S,10S,12aR,14R,15S,15aR,16R)-14-(6-amino-9H-purin-9-yl)-15,16-difluoro-2,10-dihydroxy-2,10-dioxidooctahydro-12H-5,8-methanofuro[3,2-l][1,3,6,9,11,2,10]pentaoxadiphosphacyclotetradecin-7-yl]-1,9-dihydro-6H-purin-6-one] |  | 150
